Active and inactive are the calls of the source.
How the values were obtained:
Albumin = Albumin (Bos taurus, UniProt P02769); test: Counterscreen for inhibitors of T-cell receptor (TCR)-CD3 interaction: Fluorescence-based biochemical high throughput dose response assay to identify inhibitors of T-cell receptor (TCR)-CD3 interaction using a TAMRA-labeled BSA probe.; assay type: functional
[1] = T. cruzi growth inhibition in host cells, dose response, cell-based, plate reader, dry powder, set 2 (AID 652275); assay type: functional
[2] = target: NAD-dependent protein deacylase sirtuin-5, mitochondrial (Homo sapiens, UniProt Q9NXA8); test: sirtuin-5 deacylation blockers, concentration series – biochemical, fluorescence imaging, cherry-pick, set 5, dose response (AID 720591);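 also: desuccinylation of succinyl peptide AMC substrate read as fluorescence after trypsin release; potency of inhibitors that lower fluorescence and may act on trypsin instead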
Sequence of NAD-dependent protein deacylase sirtuin-5, mitochondrial (Q9NXA8 whole entry): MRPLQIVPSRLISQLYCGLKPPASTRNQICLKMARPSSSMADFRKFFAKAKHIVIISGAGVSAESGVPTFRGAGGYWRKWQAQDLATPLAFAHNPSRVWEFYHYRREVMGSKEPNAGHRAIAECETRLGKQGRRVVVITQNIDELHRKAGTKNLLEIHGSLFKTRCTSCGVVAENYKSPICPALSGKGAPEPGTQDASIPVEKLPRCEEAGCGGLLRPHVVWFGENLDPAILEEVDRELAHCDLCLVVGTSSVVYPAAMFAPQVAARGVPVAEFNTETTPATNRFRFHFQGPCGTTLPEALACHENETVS

[3] = growth inhibition of PfATP4-mutant resistant parasites – NITD609-resistant line, SYBR Green, dry powder, dose response (AID 1159571); assay type: functional, cell-based;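 also: parasites synchronized at ring stage by sorbitol before testing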
[4] = toxicity to human HepG2 hepatoma cells – cell-based, plate reader, dry powder samples, cytotoxicity control, dose response (AID 1159569); assay type: functional;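 also: inhibitor potency with signal falling toward the positive control level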
[5] = Dd2 malaria parasite growth inhibition potency – SYBR Green, dry powder samples, dose response (AID 1159566); assay type: functional, cell-based;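 also: potency for growth inhibition with lower SYBR green DNA signal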
[6] = P. falciparum Dd2 growth inhibitors, dose response, SYBR Green, cherry-picked samples (AID 1159567); assay type: functional, cell-based
[7] = toxicity to human hepatoma HepG2 cells – cell-based, cherry-picked samples, cytotoxicity control, dose response (AID 1159577); assay type: functional
[8] = growth inhibition of yeast DHODH-expressing 3D7 parasites – SYBR Green, dry powder samples, dose response (AID 1159570); assay type: functional, cell-based;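 also: parasite growth measured after 72 hours of compound exposure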
[9] = target: Photoreceptor-specific nuclear receptor (Homo sapiens, UniProt Q9Y5X4); test: ligands suppressing NR2E3 nuclear receptor activity – biochemical, TR-FRET, dose response (AID 463256); assay type: functional
Sequence of Photoreceptor-specific nuclear receptor (Q9Y5X4 whole entry): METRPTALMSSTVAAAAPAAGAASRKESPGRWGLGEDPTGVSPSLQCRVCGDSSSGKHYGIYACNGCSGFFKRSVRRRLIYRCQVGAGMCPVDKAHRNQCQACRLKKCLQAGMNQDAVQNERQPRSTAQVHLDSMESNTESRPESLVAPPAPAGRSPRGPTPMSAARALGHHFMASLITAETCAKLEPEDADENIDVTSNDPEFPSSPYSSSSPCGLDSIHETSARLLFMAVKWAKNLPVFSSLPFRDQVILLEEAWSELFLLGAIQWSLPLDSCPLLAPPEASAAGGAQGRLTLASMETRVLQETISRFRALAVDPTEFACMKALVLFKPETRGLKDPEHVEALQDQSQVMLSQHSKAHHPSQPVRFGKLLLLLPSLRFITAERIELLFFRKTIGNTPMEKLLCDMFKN

[10] = target: Peroxisome proliferator-activated receptor gamma/Nuclear receptor corepressor 2 (Homo sapiens, UniProt P37231+Q9Y618); test: Counterscreen for NR2E3 inverse agonists: TR-FRET-based biochemical high throughput dose response assay to identify inverse agonists of the interaction between peroxisome proliferator-activated receptor gamma (PPARg) and nuclear receptor co-repressor 2 (NCOR2).; assay type: functional
Sequence of Peroxisome proliferator-activated receptor gamma/Nuclear receptor corepressor 2 (P37231 whole entry): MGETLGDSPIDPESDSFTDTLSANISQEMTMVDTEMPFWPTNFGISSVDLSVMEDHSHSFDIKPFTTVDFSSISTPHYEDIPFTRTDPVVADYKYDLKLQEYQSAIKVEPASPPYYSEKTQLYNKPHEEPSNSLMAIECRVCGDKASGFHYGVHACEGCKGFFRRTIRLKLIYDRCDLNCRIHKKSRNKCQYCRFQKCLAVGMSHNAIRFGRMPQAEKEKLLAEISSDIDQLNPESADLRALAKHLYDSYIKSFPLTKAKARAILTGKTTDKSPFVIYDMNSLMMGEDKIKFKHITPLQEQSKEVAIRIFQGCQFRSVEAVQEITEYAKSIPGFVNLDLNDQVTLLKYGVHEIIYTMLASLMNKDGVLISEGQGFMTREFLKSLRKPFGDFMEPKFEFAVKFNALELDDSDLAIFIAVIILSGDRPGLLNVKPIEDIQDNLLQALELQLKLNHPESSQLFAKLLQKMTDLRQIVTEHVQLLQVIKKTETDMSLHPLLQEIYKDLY
Sequence of Peroxisome proliferator-activated receptor gamma/Nuclear receptor corepressor 2 (Q9Y618 whole entry): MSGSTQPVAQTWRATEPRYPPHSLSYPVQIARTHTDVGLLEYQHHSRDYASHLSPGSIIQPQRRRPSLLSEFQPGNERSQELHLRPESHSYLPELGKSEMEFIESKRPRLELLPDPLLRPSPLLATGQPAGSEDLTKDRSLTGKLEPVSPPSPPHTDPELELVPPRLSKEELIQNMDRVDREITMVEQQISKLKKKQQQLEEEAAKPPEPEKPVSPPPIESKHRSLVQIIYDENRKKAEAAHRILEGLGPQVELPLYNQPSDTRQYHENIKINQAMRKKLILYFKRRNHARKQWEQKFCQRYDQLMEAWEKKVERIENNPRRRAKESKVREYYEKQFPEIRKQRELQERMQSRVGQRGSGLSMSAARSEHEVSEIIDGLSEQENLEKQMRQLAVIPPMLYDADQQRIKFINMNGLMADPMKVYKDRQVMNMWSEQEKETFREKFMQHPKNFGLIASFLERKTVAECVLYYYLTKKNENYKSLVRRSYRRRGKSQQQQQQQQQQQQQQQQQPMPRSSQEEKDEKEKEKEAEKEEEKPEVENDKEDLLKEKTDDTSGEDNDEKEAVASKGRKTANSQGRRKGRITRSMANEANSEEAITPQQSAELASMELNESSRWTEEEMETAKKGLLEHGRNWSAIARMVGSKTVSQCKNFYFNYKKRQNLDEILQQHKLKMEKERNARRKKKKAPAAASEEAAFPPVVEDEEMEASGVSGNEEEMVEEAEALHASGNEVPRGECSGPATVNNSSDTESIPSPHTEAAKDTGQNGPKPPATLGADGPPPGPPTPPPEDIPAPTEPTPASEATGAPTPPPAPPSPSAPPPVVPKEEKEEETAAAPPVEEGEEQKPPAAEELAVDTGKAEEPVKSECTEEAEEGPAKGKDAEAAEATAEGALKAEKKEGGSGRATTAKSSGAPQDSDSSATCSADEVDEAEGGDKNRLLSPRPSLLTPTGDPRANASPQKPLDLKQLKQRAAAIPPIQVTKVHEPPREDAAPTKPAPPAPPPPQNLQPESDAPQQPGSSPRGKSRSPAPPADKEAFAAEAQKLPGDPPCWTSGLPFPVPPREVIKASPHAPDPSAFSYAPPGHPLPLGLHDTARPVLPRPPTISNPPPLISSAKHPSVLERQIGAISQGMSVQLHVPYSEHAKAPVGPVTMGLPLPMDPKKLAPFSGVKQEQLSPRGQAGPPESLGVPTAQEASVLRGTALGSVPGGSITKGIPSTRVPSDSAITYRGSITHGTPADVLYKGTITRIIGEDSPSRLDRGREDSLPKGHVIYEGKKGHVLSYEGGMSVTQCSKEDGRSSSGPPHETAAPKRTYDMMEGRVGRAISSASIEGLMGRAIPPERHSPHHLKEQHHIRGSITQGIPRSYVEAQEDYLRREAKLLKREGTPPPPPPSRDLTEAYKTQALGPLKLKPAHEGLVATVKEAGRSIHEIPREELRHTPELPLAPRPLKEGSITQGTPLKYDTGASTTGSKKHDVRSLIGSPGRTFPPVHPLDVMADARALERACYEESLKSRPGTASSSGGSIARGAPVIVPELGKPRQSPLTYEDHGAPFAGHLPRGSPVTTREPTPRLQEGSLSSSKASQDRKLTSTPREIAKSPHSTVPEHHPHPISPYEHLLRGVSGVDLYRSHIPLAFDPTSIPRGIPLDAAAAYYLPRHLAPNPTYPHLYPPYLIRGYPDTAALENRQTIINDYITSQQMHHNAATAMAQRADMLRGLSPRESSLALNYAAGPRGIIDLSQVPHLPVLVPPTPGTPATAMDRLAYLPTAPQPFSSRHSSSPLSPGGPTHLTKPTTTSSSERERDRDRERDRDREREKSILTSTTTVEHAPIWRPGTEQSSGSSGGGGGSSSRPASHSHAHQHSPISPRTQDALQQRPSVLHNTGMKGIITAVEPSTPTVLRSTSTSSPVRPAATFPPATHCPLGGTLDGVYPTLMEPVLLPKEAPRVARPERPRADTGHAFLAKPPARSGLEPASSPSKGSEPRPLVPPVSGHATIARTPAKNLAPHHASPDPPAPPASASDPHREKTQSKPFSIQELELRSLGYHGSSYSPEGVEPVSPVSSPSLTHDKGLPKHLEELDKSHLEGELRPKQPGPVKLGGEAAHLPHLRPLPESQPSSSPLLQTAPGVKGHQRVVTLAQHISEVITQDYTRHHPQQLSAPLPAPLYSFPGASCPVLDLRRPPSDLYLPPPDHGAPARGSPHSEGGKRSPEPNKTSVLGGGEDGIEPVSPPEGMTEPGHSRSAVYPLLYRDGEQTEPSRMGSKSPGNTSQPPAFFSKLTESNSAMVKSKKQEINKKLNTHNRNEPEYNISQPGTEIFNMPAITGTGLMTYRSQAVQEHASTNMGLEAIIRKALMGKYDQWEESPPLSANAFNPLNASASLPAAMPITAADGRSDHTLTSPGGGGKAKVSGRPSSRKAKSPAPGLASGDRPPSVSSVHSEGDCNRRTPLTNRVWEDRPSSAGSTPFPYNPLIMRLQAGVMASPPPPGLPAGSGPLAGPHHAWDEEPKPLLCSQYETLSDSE

Prothrombin = Prothrombin (Homo sapiens, UniProt P00734); test: Thrombin 1536 HTS Dose Response Confirmation. [Related pubchem assays: 1046 (Thrombin 1536 HTS; hits were confirmed in this assay)]; assay type: functional
Kallikrein-7 = Kallikrein-7 (Homo sapiens, UniProt P49862); test: Fluorescence Intensity-based biochemical primary high throughput dose response assay to identify activators of kallikrein-7 (K7) zymogen.
[11] = reduced cellular PGC1a acetyl-lysine signal – cell-based, cherry-picked samples, dose response (AID 720514); assay type: functional;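 also: potency may reflect raised or lowered acetylation signal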
[12] = inhibition of ADAM10 peptide cleavage – biochemical, FRET peptide substrate, recombinant human ADAM10, selectivity assay for ADAM17 exosite inhibitor project, dose response (AID 743259);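 also: ADAM10 enzyme cleaving a FRET peptide substrate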
[13] = target: Disintegrin and metalloproteinase domain-containing protein 17 (Homo sapiens, UniProt P78536); test: exosite inhibitors of ADAM17, dose response, biochemical (AID 743260)
Sequence of Disintegrin and metalloproteinase domain-containing protein 17 (P78536 whole entry, the tested form may be a part): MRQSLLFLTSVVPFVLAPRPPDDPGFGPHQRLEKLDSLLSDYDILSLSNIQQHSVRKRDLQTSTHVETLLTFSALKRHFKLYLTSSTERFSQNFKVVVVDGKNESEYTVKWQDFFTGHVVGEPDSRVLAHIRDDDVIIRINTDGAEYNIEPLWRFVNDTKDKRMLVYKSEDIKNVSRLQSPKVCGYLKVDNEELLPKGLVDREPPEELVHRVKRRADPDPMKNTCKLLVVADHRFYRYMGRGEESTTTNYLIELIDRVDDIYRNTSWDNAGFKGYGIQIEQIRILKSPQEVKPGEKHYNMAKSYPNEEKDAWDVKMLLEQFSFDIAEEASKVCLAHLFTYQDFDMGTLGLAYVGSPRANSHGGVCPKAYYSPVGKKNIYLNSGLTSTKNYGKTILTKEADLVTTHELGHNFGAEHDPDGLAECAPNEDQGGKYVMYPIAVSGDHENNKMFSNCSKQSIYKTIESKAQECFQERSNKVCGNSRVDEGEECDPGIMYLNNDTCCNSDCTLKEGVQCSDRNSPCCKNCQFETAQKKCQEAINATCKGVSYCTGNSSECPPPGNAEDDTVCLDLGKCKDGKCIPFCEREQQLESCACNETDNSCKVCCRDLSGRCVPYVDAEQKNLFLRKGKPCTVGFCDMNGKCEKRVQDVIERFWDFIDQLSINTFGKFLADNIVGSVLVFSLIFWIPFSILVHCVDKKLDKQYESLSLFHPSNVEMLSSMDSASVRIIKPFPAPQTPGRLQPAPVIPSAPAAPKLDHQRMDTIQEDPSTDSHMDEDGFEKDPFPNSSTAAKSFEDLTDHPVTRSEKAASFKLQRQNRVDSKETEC

[14] = IGROV1 cell killing – plate reader, dry powder samples, PAX8 inhibitor project, dose response (AID 743043); assay type: functional, cell-based; settings: IGROV-1
[15] = OVCAR8 cell viability loss – plate reader, dry powder samples, PAX8 project, dose response (AID 743197); assay type: functional, cell-based; settings: OVCAR-8
[16] = OVCAR-3 cell viability loss – plate reader, dry powder samples, PAX8 inhibitor project, dose response (AID 743044); assay type: functional, cell-based
Paired box protein Pax-8 = Paired box protein Pax-8 (Homo sapiens, UniProt Q06710); test: PAX8 transcriptional activity inhibition in RMG-I – RMG-I cells, luciferase, cherry-pick, dose response (AID 687027); assay type: functional, cell-based;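 also: luciferase reporter driven by Pax8 target thyroperoxidase promoter measured by SteadyGlo luminescence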
Sequence of Paired box protein Pax-8 (Q06710 whole entry): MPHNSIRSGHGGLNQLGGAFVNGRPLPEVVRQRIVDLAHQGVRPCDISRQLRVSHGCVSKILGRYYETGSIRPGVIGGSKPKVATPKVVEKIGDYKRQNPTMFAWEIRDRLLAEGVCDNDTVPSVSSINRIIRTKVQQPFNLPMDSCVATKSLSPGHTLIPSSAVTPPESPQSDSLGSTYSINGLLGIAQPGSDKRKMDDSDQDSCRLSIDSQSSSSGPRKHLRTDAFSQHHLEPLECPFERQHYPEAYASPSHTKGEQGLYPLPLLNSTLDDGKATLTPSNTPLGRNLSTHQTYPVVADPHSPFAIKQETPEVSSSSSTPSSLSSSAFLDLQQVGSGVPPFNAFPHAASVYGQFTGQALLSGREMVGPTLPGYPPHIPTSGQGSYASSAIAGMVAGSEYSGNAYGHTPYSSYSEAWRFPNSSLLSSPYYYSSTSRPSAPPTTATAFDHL

[17] = target: T1, RNA-editing ligase 1, mitochondrial (Trypanosoma brucei brucei, UniProt P86926); test: inhibition of trypanosome RNA editing ligase – biochemical, fluorescence, Trypanosoma brucei, dose response (AID 1117295); assay type: functional
T1 sequence (P86926 whole entry): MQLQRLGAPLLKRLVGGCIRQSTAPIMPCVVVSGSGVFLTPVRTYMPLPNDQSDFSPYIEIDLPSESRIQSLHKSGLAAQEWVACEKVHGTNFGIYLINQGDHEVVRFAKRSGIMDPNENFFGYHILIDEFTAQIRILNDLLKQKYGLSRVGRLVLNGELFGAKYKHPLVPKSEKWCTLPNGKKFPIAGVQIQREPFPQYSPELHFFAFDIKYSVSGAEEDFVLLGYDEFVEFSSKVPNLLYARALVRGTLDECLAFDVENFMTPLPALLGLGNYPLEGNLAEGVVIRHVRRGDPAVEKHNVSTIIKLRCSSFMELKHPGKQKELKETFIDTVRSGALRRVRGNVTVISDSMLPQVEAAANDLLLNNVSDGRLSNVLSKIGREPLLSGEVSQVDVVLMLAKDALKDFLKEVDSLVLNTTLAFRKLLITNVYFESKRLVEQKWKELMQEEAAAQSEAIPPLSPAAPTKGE

[18] = target: Induced myeloid leukemia cell differentiation protein Mcl-1 (Homo sapiens, UniProt Q07820); assay type: functional
Nonstructural protein 1 = Nonstructural protein 1 (Influenza A virus, UniProt Q194T2); assay type: functional, Influenza A virus (A/California/07/2009(H1N1))
[19] = target: Peroxisome proliferator-activated receptor gamma/Nuclear receptor coactivator 2 (Homo sapiens, UniProt P37231); test: (§1) TR-FRET dose response biochemical High Throughput Screening assay for agonists of the steroid receptor coactivator 2 (SRC-2) recruitment by the peroxisome proliferator-activated receptor gamma (PPAR gamma): non-selective agonists. [Related pubchem assays: 1297, 1032 ]; assay type: functional
[20] = target: Peroxisome proliferator-activated receptor gamma/Nuclear receptor coactivator 3 (Homo sapiens, UniProt P37231); test: as §1, with “3 (SRC-3)” for “2 (SRC-2)”, “1301 (Confirmation screen.), 1048 (Primary screen.)]” for “1297, 1032 ]”; assay type: functional
Major prion protein = Major prion protein (Homo sapiens, UniProt P04156); assay type: functional, cell-based
[21] = target: Protein-tyrosine kinase 2-beta (Homo sapiens, UniProt Q14289);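 also: potency of inhibitors of PYK2 kinase phosphorylation of poly-GT substrate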
[22] = alpha-synuclein stem-loop luciferase translation blockers – H4 neuroglioma cells, luminescence, confirmation (AID 1988); assay type: functional, cell-based
[23] = luciferase reporter signal suppression in cells – H4 neuroglioma cells, luminescence, dose response (AID 1990); assay type: functional, cell-based
[24] = Luminescence Cell-Based Dose Response HTS to Identify Inhibitors of 5'UTR Stem-Loop Driven Prion Protein mRNA Translation in H4 Neuroglioblastoma Cells. [Related pubchem assays: 1827 (Project Summary), 1813 (Primary HTS)]; assay type: functional
Fatty acid synthase [25] = target: T2, Fatty acid synthase (Homo sapiens, UniProt P49327); test: inhibition of human FAS-TE enzyme activity – biochemical, kinetic fluorescence intensity, dose response (AID 624326); assay type: functional;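 also: rate of fluorescence rise from hydrolysis of a fluorogenic O-methyl fluorescein ester substrate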
Fatty acid synthase [26] = target: T2, Fatty acid synthase; test: inhibition of human FAS-TE enzyme activity – biochemical, endpoint fluorescence intensity, uHTS hits, dose response (AID 624327); assay type: functional;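 also: fluorescence from hydrolysis of an O-methyl fluorescein acyl ester substrate by the enzyme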

In the case of `O=C(CSc1nc2ccccc2c(=O)n1-c1ccc(F)c(Cl)c1)Nc1cccc(S(=O)(=O)N2CCOCC2)c1`, the IC50 (Albumin) is reported as > 94.2 µM (inactive).
In the case of `CCC(=O)N1CC[C@@H]2[C@H]1c1cc(Br)ccc1N(C)[C@@H]2CO`, the AC50 [1] is reported as 11.7 µM (active).
With `Cc1cccc(NC(=O)N2CCCC(CNC(=O)c3ccccc3Cl)C2)c1C` (centres undefined) the AC50 [2] was > 30 µM (inactive).
With `C(=C\c1ccc([C@H]2[C@@H]3CN(Cc4cccnc4)C[C@H]2N3)cc1)/c1ccccc1` the AC50 [3] was 3.95 µM (active), the AC50 [4] was 18.6 µM (active) and the AC50 [5] was 3.79 µM (active). For the same compound, the AC50 [6] was 2.81 µM (active), the AC50 [7] was 27.5 µM (active) and the AC50 [8] was 4.3 µM (active).
For `CC(C)N1C[C@@H](CN(C)Cc2ccc(Cl)cc2)Oc2c(C(=O)Nc3ccnnc3)cccc2C1=O`, the AC50 [1] was 0.299 µM (active).
In the case of `O=C(CN1C(=O)NC2(CCCc3ccccc32)C1=O)NCC(F)(F)F` (centres undefined), the IC50 [9] is reported as 8.55 µM (active) and the IC50 [10] is reported as 7.85 µM (active).
In the case of `CC(=N)/C(C#N)=C(/O)CSc1nc2cc(Cl)ccc2s1`, the IC50 (Prothrombin) is reported as > 50 µM (not active).
In the case of `COc1ccc(C2C3=C(O)CC(C)(C)CC3=NC(C)=C2C(=O)N2CCOCC2)c(OC)c1` (centres undefined), the EC50 (Kallikrein-7) is reported as 52.4 µM (inactive).
With `CC1CCCN(CC(=O)N2CCCc3ccccc32)C1.[O-][Cl+3]([O-])([O-])O` (centres undefined) the AC50 [11] was 27.1 µM (active).
For `O=C(Oc1ccc(Oc2ccccc2)cc1)N1CCC(O)CC1`, the AC50 [2] was > 30 µM (inactive).
With `Cc1ccc(CN2C(=O)[C@H]3Cc4c([nH]c5ccccc45)C(C)(C)N3C2=O)cc1` the IC50 [12] was > 69.5 µM (inactive) and the IC50 [13] was > 69.5 µM (inactive).
With `OC[C@@H]1CC[C@@H]2O[C@H](CCc3ccc(C#CCc4ccccc4)cc3)[C@H](n3cc(-c4ccccc4)nn3)C[C@@H]2O1` the AC50 [3] was 1.53 µM (active), the AC50 [4] was > 100 µM (inactive) and the AC50 [5] was 0.879 µM (active). For the same compound, the AC50 [6] was 1.45 µM (active) and the AC50 [8] was 1.79 µM (active).
With `Cc1cc(NC(=O)CSc2nnc3ccc(-c4ccccc4)nn23)no1` the AC50 [2] was > 30 µM (inactive).
For `COc1cccc(-c2cc(C(=O)Nc3cc(C)on3)no2)c1`, the IC50 [9] was > 39.8 µM (not active) and the IC50 [10] was > 39.8 µM (not active).
In the case of `C[C@@H]1CCCCO[C@H](CN(C)Cc2ccc(C(F)(F)F)cc2)[C@@H](C)CN([C@@H](C)CO)C(=O)c2cc(NS(=O)(=O)c3ccc(F)cc3)ccc2O1`, the AC50 [14] is reported as 31 µM (active), the AC50 [15] is reported as 29.7 µM (active) and the AC50 [16] is reported as 21.5 µM (active). The AC50 (Paired box protein Pax-8) was 8.57 µM (active).
In the case of `COC(=O)C1=C(C)N(Cc2cccc(C(F)(F)F)c2)C(NCc2ccccc2C(F)(F)F)=NC1c1cccc(F)c1` (centres undefined), the IC50 [17] is reported as > 96.6 µM (inactive).
In the case of `COC(=O)C1=C(C)N(Cc2ccc(C(F)(F)F)cc2)C(NCc2ccccc2C(F)(F)F)=NC1c1ccc(Cl)cc1` (centres undefined), the IC50 [17] is reported as > 96.6 µM (inactive).
In the case of `CCCc1cn(CC[C@@H]2CC[C@@H](NS(=O)(=O)c3ccc(-c4ccccc4)cc3)[C@H](CO)O2)nn1`, the AC50 [3] is reported as 1.82 µM (active), the AC50 [4] is reported as 37.5 µM (active) and the AC50 [5] is reported as 1.99 µM (active). The AC50 [6] was 1.7 µM (active), the AC50 [7] was 23.3 µM (active) and the AC50 [8] was 2.17 µM (active).
With `Cc1csc(NC(=O)COc2ccc3c(C)cc(=O)oc3c2)n1` the IC50 [9] was 7.06 µM (active) and the IC50 [10] was > 39.8 µM (not active).
With `CC(C)N1CC2(CN(Cc3ccc(F)c(F)c3)C2)Oc2c(NC(=O)c3ccncc3)cccc2C1=O` the AC50 [1] was 1.05 µM (active).
For `Cc1n[nH]c(=S)n(NC(=O)/C=C/C(=O)Nn2c(=S)[nH]nc(C)c2=O)c1=O`, the IC50 [17] was 63.6 µM (inactive), the IC50 [18] was 4.67 µM (active) and the IC50 (Nonstructural protein 1) was 7.29 µM (active).
With `N#CC1=C2SCN(Cc3ccccc3)CN2C(=O)CC1c1cccs1` (centres undefined) the IC50 (cells) was > 138 µM (inactive), the EC50 [19] was > 79.4 µM (not active) and the EC50 [20] was > 79.4 µM (not active). For the same compound, the IC50 (Major prion protein) was > 138 µM (inactive).
For `CCOC(=O)CSc1nc(C(C)C)nc2ccccc12`, the IC50 (cells) was > 138 µM (inactive), the IC50 [21] was > 69.5 µM (not active) and the IC50 (Major prion protein) was 1.08 µM (active).
In the case of `C[C@@H]1CN([C@H](C)CO)C(=O)c2cc(NC(=O)Nc3ccc(F)cc3)ccc2O[C@@H](C)CCCCO[C@H]1CN(C)C(=O)NC1CCCCC1`, the AC50 [16] is reported as 43.1 µM (active) and the AC50 (Paired box protein Pax-8) is reported as 6.55 µM (active).
In the case of `C[C@H]1CCCCO[C@H](CN(C)Cc2ccc(C(F)(F)F)cc2)[C@@H](C)CN([C@@H](C)CO)C(=O)c2cc(NS(=O)(=O)c3ccc(Cl)cc3)ccc2O1`, the AC50 [14] is reported as 36 µM (active), the AC50 [15] is reported as > 70 µM (inactive) and the AC50 (Paired box protein Pax-8) is reported as 4.73 µM (active).
With `CCOC(=O)c1c(-c2ccccc2)csc1NC(=O)CSc1nncs1` the IC50 [12] was > 69.5 µM (inactive), the IC50 [13] was > 69.5 µM (inactive) and the EC50 [22] was 30.6 µM (active). The EC50 [23] was 15.8 µM (active) and the EC50 [24] was > 120 µM (not active).
For `CCn1cc(C(=O)NCc2ccco2)c(=O)c2cc(S(=O)(=O)N3CCCCCC3)ccc21`, the IC50 (Fatty acid synthase [25]) was 2.32 µM (active), the IC50 (Fatty acid synthase [26]) was 2.96 µM (active) and the IC50 (Prothrombin) was 14.7 µM (active).
For `COc1ccc(OC)c(NC(=O)COC(=O)Cc2ccc(-c3ccccc3)cc2)c1`, the IC50 [12] was > 69.5 µM (inactive) and the IC50 [13] was > 69.5 µM (inactive).
For `CC(C)OC(=O)CSc1nc(Cc2ccccc2)nc2ccccc12`, the IC50 (cells) was > 138 µM (inactive) and the IC50 (Major prion protein) was 4.45 µM (active).
In the case of `Cc1cc(C)c2c(n1)nn1c(NCCN3CCOCC3)cc(C)nc21`, the EC50 (Kallikrein-7) is reported as 34.8 µM (inactive).
